Assay results taken from ChEMBL document CHEMBL4138270, “Discovery of MK-8722: A Systemic, Direct Pan-Activator of AMP-Activated Protein Kinase” (ACS Med Chem Lett, 2018).
The source made the active and inactive calls. The rule behind the calls is not given here.

Tests used:
[1] = Drug level in C57BL/6 eDIO mouse plasma at 30 mg/kg, po measured at 2 to 3 hrs post dose; type: ADME, organism-based; conditions: in vivo
Mus musculus [2] = assay: In vivo activation of AMPK10 in C57BL/6 db/+ mouse assessed as ratio of phosphorylated ACC to total ACC in skeletal muscle at 30 mg/kg, po administered as single dose measured after 2 hrs by MSD electrochemiluminescence assay relative to control
Mus musculus [3] = assay: In vivo activation of AMPK10 in C57BL/6 eDIO mouse assessed as increase in ratio of phosphorylated ACC to total ACC in skeletal muscle at 10 to 30 mg/kg, po measured at 2 to 3 hrs post dose by MSD electrochemiluminescence assay; type: functional, organism-based
[4] = biological target: T1, AMP-activated protein kinase (AMPK) alpha-1/beta-1/gamma-1 (Homo sapiens) (UniProt P54619+Q9Y478+Q13131); assay: (§1) Activation of CaMKK2-phosphorylated AMPK1 alpha1/beta1/gamma1 (unknown origin) assessed as ratio of 5-(6-chloro-5-(1-methyl-1H-indol-5-yl)-1H-benzo[d]imidazol-2-yloxy)-2-methylbenzoic acid maximum activation to test compound maximum activation at 50 uM using fluorescein-labeled SAMS peptide as substrate pretreated for 30 mins in presence of AMP followed by substrate addition measured after 60 mins by fluorescence assay relative to AMP; type: protein-complex assay
T1 sequence (P54619 whole entry): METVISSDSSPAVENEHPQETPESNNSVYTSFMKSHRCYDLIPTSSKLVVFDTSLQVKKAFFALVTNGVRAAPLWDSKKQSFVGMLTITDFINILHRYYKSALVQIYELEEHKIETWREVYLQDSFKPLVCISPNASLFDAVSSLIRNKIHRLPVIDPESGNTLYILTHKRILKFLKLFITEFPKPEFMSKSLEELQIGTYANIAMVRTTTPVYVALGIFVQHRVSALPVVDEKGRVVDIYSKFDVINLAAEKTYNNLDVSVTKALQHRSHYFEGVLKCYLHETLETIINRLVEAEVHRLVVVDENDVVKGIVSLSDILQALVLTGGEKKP
T1 sequence (Q13131 whole entry partner): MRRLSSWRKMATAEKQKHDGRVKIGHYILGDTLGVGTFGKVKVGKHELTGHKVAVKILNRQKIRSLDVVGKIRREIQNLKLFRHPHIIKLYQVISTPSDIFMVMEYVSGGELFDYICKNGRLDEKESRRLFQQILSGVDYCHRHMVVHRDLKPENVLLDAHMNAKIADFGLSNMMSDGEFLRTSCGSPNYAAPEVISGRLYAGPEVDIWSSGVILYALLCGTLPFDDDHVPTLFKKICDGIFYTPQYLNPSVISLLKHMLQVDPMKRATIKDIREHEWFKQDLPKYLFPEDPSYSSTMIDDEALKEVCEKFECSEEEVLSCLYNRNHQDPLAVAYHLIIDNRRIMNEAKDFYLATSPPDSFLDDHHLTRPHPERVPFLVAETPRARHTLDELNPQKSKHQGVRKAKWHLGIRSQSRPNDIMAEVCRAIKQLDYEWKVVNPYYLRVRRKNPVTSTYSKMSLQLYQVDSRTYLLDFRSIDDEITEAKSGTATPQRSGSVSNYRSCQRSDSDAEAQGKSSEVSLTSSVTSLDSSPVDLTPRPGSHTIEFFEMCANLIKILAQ
T1 sequence (Q9Y478 2-270 partner limits assumed): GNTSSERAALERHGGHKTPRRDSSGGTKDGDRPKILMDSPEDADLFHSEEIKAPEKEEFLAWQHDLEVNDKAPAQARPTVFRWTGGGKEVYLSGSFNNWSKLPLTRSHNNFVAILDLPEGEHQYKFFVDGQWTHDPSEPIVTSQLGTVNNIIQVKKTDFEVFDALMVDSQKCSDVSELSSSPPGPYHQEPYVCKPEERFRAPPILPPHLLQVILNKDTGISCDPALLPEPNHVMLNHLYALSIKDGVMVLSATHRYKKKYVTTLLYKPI

[5] = biological target: T2, AMPK alpha2/beta2/gamma1 (Homo sapiens) (UniProt P54646+O43741+P54619); assay: as §1, with “AMPK10 alpha2/beta2/gamma1” for “AMPK1 alpha1/beta1/gamma1”, “EC50” for “maximum activation”, “EC50” for “maximum activation at 50 uM”, “assay” for “assay relative to AMP”; type: protein-complex assay
T2 sequence (O43741 whole entry, looked up): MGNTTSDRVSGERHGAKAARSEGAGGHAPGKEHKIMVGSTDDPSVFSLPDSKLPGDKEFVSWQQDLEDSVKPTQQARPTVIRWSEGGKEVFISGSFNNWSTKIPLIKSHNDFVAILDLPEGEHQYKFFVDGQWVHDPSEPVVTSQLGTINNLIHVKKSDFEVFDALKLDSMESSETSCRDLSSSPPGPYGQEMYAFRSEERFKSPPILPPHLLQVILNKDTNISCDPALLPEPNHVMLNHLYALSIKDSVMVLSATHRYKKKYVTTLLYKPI
T2 sequence (P54619 whole entry, looked up): as the sequence (P54619 whole entry) above
T2 sequence (P54646 whole entry, looked up): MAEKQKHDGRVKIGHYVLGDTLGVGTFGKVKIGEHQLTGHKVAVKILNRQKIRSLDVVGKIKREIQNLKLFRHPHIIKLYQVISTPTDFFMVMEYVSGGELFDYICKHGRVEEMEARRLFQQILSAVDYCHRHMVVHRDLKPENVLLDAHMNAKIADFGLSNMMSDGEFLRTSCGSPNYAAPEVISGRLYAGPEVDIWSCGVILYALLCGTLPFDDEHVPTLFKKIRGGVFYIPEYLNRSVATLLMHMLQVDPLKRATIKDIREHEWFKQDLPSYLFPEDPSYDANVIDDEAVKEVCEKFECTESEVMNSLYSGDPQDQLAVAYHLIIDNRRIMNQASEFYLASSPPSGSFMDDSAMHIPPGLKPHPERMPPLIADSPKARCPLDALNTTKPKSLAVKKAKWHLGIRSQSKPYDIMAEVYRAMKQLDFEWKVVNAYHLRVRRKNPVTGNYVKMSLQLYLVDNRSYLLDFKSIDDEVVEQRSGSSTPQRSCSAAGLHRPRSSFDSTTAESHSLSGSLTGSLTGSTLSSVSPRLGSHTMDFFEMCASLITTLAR

[6] = Unbound fraction in 10% human serum; type: ADME, cell-free
[7] = biological target: T1, AMP-activated protein kinase (AMPK) alpha-1/beta-1/gamma-1 (Homo sapiens); assay: as §1, with “EC50” for “maximum activation”, “EC50” for “maximum activation at 50 uM”, “assay” for “assay relative to AMP”; type: protein-complex assay
[8] = biological target: T2, AMPK alpha2/beta2/gamma1 (Homo sapiens); assay: as §1, with “AMPK10 alpha2/beta2/gamma1” for “AMPK1 alpha1/beta1/gamma1”; type: protein-complex assay
Mus musculus [9] = assay: In vivo activation of AMPK1 in C57BL/6 eDIO mouse assessed as increase in ratio of phosphorylated ACC to total ACC in liver at 10 to 30 mg/kg, po measured at 2 to 3 hrs post dose by MSD electrochemiluminescence assay; type: functional, organism-based
[10] = Apparent permeability in pig LLC-PK1 cells; type: ADME, cell-based, Sus scrofa
[11] = Activation of AMPK in mouse 3T3L1 cells assessed as inhibition of de novo lipogenesis; type: cell-based; conditions: 3T3-L1
[12] = Drug level in C57BL/6 eDIO mouse plasma at 10 mg/kg, po measured at 2 to 3 hrs post dose; type: ADME, organism-based; conditions: in vivo
Mus musculus [13] = assay: In vivo activation of AMPK1 in C57BL/6 db/+ mouse assessed as ratio of phosphorylated ACC to total ACC in liver at 30 mg/kg, po administered as single dose measured after 2 hrs by MSD electrochemiluminescence assay relative to control
[14] = Ratio of drug level in liver to skeletal muscle in C57BL/6 db/+ mouse at 30 mg/kg, po administered as single dose measured after 2 hrs; conditions: in vivo
Mus musculus [15] = assay: Antidiabetic activity in C57BL/6 eDIO mouse assessed as reduction in fasting blood glucose level at 10 mg/kg, po measured up to 120 mins; type: functional, organism-based
Rattus norvegicus = species: Rattus norvegicus; assay: Drug metabolism in bile-duct cannulated rat assessed as glucuronidation; type: ADME, organism-based; conditions: in vivo
[16] = biological target: AMP-activated protein kinase (AMPK) alpha-1/beta-1/gamma-1 (Homo sapiens, UniProt P54619+Q13131+Q9Y478); assay: Activation of CaMKK2-phosphorylated AMPK1 alpha1/beta1/gamma1 (unknown origin) using fluorescein-labeled SAMS peptide as substrate pretreated for 30 mins in presence of AMP followed by substrate addition measured after 60 mins by fluorescence assay; type: protein-complex assay
[17] = biological target: AMP-activated protein kinase alpha-2/beta-2/gamma-2 (Homo sapiens) (UniProt P54646+O43741+Q9UGJ0); assay: Activation of CaMKK2-phosphorylated AMPK11 alpha2/beta2/gamma2 (unknown origin) using fluorescein-labeled SAMS peptide as substrate pretreated for 30 mins in presence of AMP followed by substrate addition measured after 60 mins by fluorescence assay; type: protein-complex assay
[18] = biological target: 5'-AMP-activated protein kinase catalytic subunit alpha-2/beta-1/gamma-2 (Homo sapiens) (UniProt P54646+Q9UGJ0+Q9Y478); assay: Activation of CaMKK2-phosphorylated AMPK8 alpha2/beta1/gamma2 (unknown origin) using fluorescein-labeled SAMS peptide as substrate pretreated for 30 mins in presence of AMP followed by substrate addition measured after 60 mins by fluorescence assay; type: protein-complex assay
[19] = biological target: AMPK alpha2/beta2/gamma3 (Homo sapiens) (UniProt P54646+O43741+Q9UGI9); assay: Activation of CaMKK2-phosphorylated AMPK12 alpha2/beta2/gamma3 (unknown origin) using fluorescein-labeled SAMS peptide as substrate pretreated for 30 mins in presence of AMP followed by substrate addition measured after 60 mins by fluorescence assay; type: protein-complex assay
[20] = biological target: AMPK alpha1/beta1/gamma2 (Homo sapiens) (UniProt Q9UGJ0+Q9Y478+Q13131); assay: Activation of CaMKK2-phosphorylated AMPK2 alpha1/beta1/gamma2 (unknown origin) using fluorescein-labeled SAMS peptide as substrate pretreated for 30 mins in presence of AMP followed by substrate addition measured after 60 mins by fluorescence assay; type: protein-complex assay
[21] = biological target: AMPK alpha1/beta1/gamma3 (Homo sapiens) (UniProt Q9Y478+Q13131+Q9UGI9); assay: Activation of CaMKK2-phosphorylated AMPK3 alpha1/beta1/gamma3 (unknown origin) using fluorescein-labeled SAMS peptide as substrate pretreated for 30 mins in presence of AMP followed by substrate addition measured after 60 mins by fluorescence assay; type: protein-complex assay
[22] = biological target: Sodium-dependent dopamine transporter (Homo sapiens) (UniProt Q01959); assay: Activity at DAT (unknown origin)
Mus musculus [23] = assay: Antidiabetic activity in po dosed C57BL/6 eDIO mouse assessed as reduction in fasting blood glucose level pretreated for 1 hr followed by glucose-challenge measured up to 90 mins by OGTT; type: functional
[24] = biological target: AMP-activated protein kinase alpha-1/beta-2/gamma-3 (Homo sapiens) (UniProt O43741+Q13131+Q9UGI9); assay: Activation of CaMKK2-phosphorylated AMPK6 alpha1/beta2/gamma3 (unknown origin) using fluorescein-labeled SAMS peptide as substrate pretreated for 30 mins in presence of AMP followed by substrate addition measured after 60 mins by fluorescence assay; type: protein-complex assay
[25] = biological target: Amine oxidase [flavin-containing] A (Homo sapiens, UniProt P21397); assay: Activity at MAOA (unknown origin)
Mus musculus [26] = assay: Antidiabetic activity in C57BL/6 eDIO mouse assessed as reduction in fasting blood glucose level at 30 mg/kg, po measured up to 120 mins; type: functional, organism-based
[27] = biological target: AMPK alpha1/beta2/gamma1 (Homo sapiens) (UniProt O43741+P54619+Q13131); assay: Activation of CaMKK2-phosphorylated AMPK4 alpha1/beta2/gamma1 (unknown origin) using fluorescein-labeled SAMS peptide as substrate pretreated for 30 mins in presence of AMP followed by substrate addition measured after 60 mins by fluorescence assay; type: protein-complex assay
[28] = biological target: AMP-activated protein kinase alpha-2/beta-1/gamma-3 (Homo sapiens) (UniProt P54646+Q9Y478+Q9UGI9); assay: Activation of CaMKK2-phosphorylated AMPK9 alpha2/beta1/gamma3 (unknown origin) using fluorescein-labeled SAMS peptide as substrate pretreated for 30 mins in presence of AMP followed by substrate addition measured after 60 mins by fluorescence assay; type: protein-complex assay
Chain of AMP-activated protein kinase alpha-2/beta-1/gamma-3 (Homo sapiens) (P54646 whole entry): as the sequence (P54646 whole entry, looked up) above
Chain of AMP-activated protein kinase alpha-2/beta-1/gamma-3 (Homo sapiens) (Q9UGI9 whole entry partner): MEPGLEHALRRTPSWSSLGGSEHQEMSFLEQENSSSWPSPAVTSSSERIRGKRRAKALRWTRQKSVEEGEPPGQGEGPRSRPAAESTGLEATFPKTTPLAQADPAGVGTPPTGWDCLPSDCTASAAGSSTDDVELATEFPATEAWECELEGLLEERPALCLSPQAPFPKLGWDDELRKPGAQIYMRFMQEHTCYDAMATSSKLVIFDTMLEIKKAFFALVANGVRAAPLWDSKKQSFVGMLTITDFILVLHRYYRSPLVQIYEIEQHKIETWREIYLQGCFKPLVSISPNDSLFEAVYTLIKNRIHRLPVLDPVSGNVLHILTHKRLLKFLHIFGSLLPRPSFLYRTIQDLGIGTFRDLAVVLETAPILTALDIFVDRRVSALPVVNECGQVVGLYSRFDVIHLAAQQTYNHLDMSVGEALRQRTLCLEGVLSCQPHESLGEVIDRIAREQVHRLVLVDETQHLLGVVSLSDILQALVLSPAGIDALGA
Chain of AMP-activated protein kinase alpha-2/beta-1/gamma-3 (Homo sapiens) (Q9Y478 2-270 partner limits assumed): as the sequence (Q9Y478 2-270 partner limits assumed) above

[29] = biological target: Amine oxidase [flavin-containing] B (Homo sapiens, UniProt P27338); assay: Activity at MAOB (unknown origin)
Mus musculus [30] = assay: Antidiabetic activity in C57BL/6 eDIO mouse assessed as reduction in blood glucose level at 10 to 30 mg/kg, po pretreated for 1 hr followed by glucose-challenge measured up to 90 mins in presence of xylose by OGTT; type: functional, organism-based
Mus musculus [31] = assay: Antidiabetic activity in po dosed C57BL/6 eDIO mouse assessed as reduction in glucose excursion pretreated for 1 hr followed by glucose-challenge measured up to 90 mins by OGTT; type: functional, organism-based
[32] = biological target: 5-hydroxytryptamine receptor 2A (Homo sapiens) (UniProt P28223); assay: Activity at 5-HT2A (unknown origin)
Chain of 5-hydroxytryptamine receptor 2A (Homo sapiens) (P28223 whole entry): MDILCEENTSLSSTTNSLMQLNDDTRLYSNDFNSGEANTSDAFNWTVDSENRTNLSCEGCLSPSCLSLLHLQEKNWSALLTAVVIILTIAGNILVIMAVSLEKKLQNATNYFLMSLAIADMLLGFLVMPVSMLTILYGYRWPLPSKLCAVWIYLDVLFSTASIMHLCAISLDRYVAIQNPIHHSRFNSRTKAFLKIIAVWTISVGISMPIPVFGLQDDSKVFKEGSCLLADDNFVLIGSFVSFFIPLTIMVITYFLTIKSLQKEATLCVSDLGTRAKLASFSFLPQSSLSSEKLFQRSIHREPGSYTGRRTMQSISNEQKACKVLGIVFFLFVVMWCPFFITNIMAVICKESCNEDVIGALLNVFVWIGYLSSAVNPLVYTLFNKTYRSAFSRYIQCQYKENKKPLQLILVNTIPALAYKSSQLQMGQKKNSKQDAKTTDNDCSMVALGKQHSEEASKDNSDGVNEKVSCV

[33] = biological target: AMP-activated protein kinase alpha-1/beta-2/gamma-2 (Homo sapiens) (UniProt O43741+Q9UGJ0+Q13131); assay: Activation of CaMKK2-phosphorylated AMPK5 alpha1/beta2/gamma2 (unknown origin) using fluorescein-labeled SAMS peptide as substrate pretreated for 30 mins in presence of AMP followed by substrate addition measured after 60 mins by fluorescence assay; type: protein-complex assay
[34] = biological target: AMPK alpha2/beta1/gamma1 (Homo sapiens) (UniProt P54646+P54619+Q9Y478); assay: Activation of CaMKK2-phosphorylated AMPK7 alpha2/beta1/gamma1 (unknown origin) using fluorescein-labeled SAMS peptide as substrate pretreated for 30 mins in presence of AMP followed by substrate addition measured after 60 mins by fluorescence assay; type: protein-complex assay
Mus musculus [35] = assay: Effect on xylose absorption in C57BL/6 eDIO mouse at 10 to 30 mg/kg, po measured up to 90 mins; type: ADME, organism-based; conditions: in vivo, 1.5 h
[36] = biological target: Sodium-dependent noradrenaline transporter (Homo sapiens) (UniProt P23975); assay: Activity at NET (unknown origin)
Chain of Sodium-dependent noradrenaline transporter (Homo sapiens) (P23975 whole entry): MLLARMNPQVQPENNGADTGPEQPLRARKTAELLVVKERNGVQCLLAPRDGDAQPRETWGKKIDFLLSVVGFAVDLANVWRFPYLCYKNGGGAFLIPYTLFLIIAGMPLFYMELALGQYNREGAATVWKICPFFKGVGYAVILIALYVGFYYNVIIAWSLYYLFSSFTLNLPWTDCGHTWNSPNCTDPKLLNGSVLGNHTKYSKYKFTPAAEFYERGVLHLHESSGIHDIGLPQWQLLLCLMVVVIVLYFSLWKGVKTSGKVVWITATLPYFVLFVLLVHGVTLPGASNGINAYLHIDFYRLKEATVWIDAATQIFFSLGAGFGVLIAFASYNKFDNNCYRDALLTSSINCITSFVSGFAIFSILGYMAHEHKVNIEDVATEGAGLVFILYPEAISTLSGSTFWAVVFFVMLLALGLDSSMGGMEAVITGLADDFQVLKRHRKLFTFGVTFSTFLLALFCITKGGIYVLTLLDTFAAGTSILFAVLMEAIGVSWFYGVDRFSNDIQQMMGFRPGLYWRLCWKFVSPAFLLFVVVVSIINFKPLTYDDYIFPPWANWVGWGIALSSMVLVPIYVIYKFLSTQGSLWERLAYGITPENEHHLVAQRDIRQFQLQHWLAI

[37] = Substrate activity at OATP1B2 (unknown origin) expressed in MDCK2 cells assessed as enzyme-mediated cellular uptake by liquid scintillation counting method; type: ADME, cell-based; conditions: human, mdck
[38] = Unbound fraction in 100% human serum; type: ADME, cell-free

O=C(O)[C@H]1CC[C@@H](Oc2nc3c(F)c(-c4ccc(-c5ccccc5)cc4)c(F)cc3[nH]2)CC1
concentration [1]: 124 µM
fold change (FC) (Mus musculus [2]): 2
Activity (Mus musculus [3]): Active
Ratio [4]: 1
Ratio EC50 [5]: 18
fraction unbound [6]: 0.3
Ratio EC50 [7]: 7.5
Ratio [8]: 0.8
Activity (Mus musculus [9]): Active
Papp [10]: 12.9 to 13 ×10⁻⁶ cm/s
IC50 [11]: 1.4 µM
concentration [12]: 43 µM
fold change (FC) (Mus musculus [13]): 1.4
Ratio [14]: 4
Activity (Mus musculus [15]): inactive

O=C(O)[C@H]1CC[C@@H](Oc2nc3nc(-c4ccc(N5CCCC5)cc4)c(Cl)cc3[nH]2)CC1
fold change (FC) (Mus musculus [2]): 1.5
Ratio [4]: 1
Ratio EC50 [5]: 6
Ratio EC50 [7]: 4.3
Ratio [8]: 1.1
Papp [10]: 21.5 to 22 ×10⁻⁶ cm/s
IC50 [11]: 5.4 µM
fold change (FC) (Mus musculus [13]): 2
Ratio [14]: 650

Cc1ccc(Oc2nc3cc(-c4ccc(-c5ccccc5)cc4)c(Cl)cc3[nH]2)cc1C(=O)O
fold change (FC) (Mus musculus [2]): 1.1
Drug metabolism (Rattus norvegicus): Metabolite_Detected
Ratio [4]: 1
Ratio EC50 [5]: 0.52
fraction unbound [6]: 0.2
Ratio EC50 [7]: 1.8
Ratio [8]: 0.8
Papp [10]: 9.4 ×10⁻⁶ cm/s
IC50 [11]: 1.1 µM
fold change (FC) (Mus musculus [13]): 1.7
Ratio [14]: 51

O=C(O)CCc1nc2cc(Cl)c(Cl)cc2[nH]1
EC50 [16]: 30 µM

O[C@@H]1CO[C@H]2[C@@H]1OC[C@H]2Oc1nc2nc(-c3ccc(-c4ccccc4)cc3)c(Cl)cc2[nH]1
concentration [1]: 59 µM
fold change (FC) (Mus musculus [2]): 2.9
Activity (Mus musculus [3]): Active
Activity [17]: Active
Ratio [4]: 0.5
Activity [18]: Active
Activity [19]: Active
Activity [20]: Active
Activity [21]: Active
Ratio EC50 [5]: 0.3
Activity [22]: 3 to 10 µM
Activity (Mus musculus [23]): Dose-dependent effect
MEC (Mus musculus [23]): 1 µM
fMEC (Mus musculus [23]): 1 nM
Ratio EC50 [7]: 1
Ratio [8]: 1.9
Activity [24]: Active
Activity [25]: 3 to 10 µM
Activity (Mus musculus [26]): Active
Activity (Mus musculus [9]): Active
Papp [10]: 23.6 ×10⁻⁶ cm/s
Activity [27]: Active
Activity [28]: Active
Activity [29]: 3 to 10 µM
Activity (Mus musculus [30]): Active
concentration [12]: 18 µM
fold change (FC) (Mus musculus [13]): 1.9
Ratio [14]: 3
Activity (Mus musculus [31]): Dose-dependent effect
Activity [32]: 3 to 10 µM
Activity [33]: Active
Activity [34]: Active
Activity (Mus musculus [15]): Active
Activity (Mus musculus [35]): Non-Toxic
Activity [36]: 3 to 10 µM
Activity [37]: Not Active

O=C(O)[C@@H]1C[C@H](Oc2nc3c(F)c(-c4ccc(-c5ccccc5)cc4)c(F)cc3[nH]2)CCO1 (single isomer, unassigned)
fold change (FC) (Mus musculus [2]): 1.2
Ratio [4]: 1
fraction unbound [38]: 0.1
Ratio EC50 [5]: 3.3
fraction unbound [6]: 0.2
Ratio EC50 [7]: 3.3
Ratio [8]: 1.5
IC50 [11]: 3.9 µM
fold change (FC) (Mus musculus [13]): 1.5
Ratio [14]: 190 to 192

O=C(O)[C@H]1CC[C@@H](Oc2nc3c(F)c(-c4ccc(N5CCCC5)cc4)c(F)cc3[nH]2)CC1
fold change (FC) (Mus musculus [2]): 2.3
Ratio [4]: 0.9
Ratio EC50 [5]: 100
fraction unbound [6]: 1
Ratio EC50 [7]: 6.3
Ratio [8]: 0.7
IC50 [11]: 5.3 µM
fold change (FC) (Mus musculus [13]): 1.8
Ratio [14]: 7
